Read-outs that look alike come from different tables or passages of the source. Square brackets hold non-standard residues; d marks the D form. Ends that are not written are not given here. Peptide text beside a SMILES is read from it. Cit = NC(=O)NCCC[C@H](N)C(=O)O
Legend:
[1] = biological target: HLA-DRB1*01:01 (plate-bound, peptide-binding assays) (human); test: competition peptide-binding assay on plates
[2] = biological target: HLA-DRB1*04:01 (plate-bound, peptide-binding assays) (human); test: competition peptide-binding assay on plates
[3] = biological target: HLA-DRB1*04:04 (plate-bound, peptide-binding assays) (human); test: competition peptide-binding assay on plates
HLA-DRB1*04:04 = HLA-DRB1*04:04 (Homo sapiens, UniProt P01903+P01911, A100R/A169T/F76Y/I96L/K127E/L162R/M171V/N62H/P40V/Q125Y/R42H/S133A/S149N/S66Y/V209L/W38E); test: Competition peptide-binding assay, HLA-DRB1*04:04
Procedure: Stepwise binding analysis of 15-mer peptides derived from both native and citrullinated α-enolase to HLA-DRB1*01, *04:01, and *04:04 was performed using the ProImmune Class II Reveal assay (ProImmune, Oxford, UK). Relevant peptides were thereafter synthesized by GenScript (Piscataway, NJ, USA) and used for competition peptide-binding assays. […] Finally, peptide-binding affinity to the three different HLA alleles was assessed in direct binding assays in which N-terminally biotinylated epitopes (GenScript, Piscataway, NJ, USA) were incubated at concentrations from 5 to 0.05 μM with plate-bound relevant HLA-DRB1 molecules in the absence of a competitor peptide ([22]). The inflection point of the binding curve of a known binding epitope was used as a cutoff to separate weakly binding epitopes from background. […]

HLA-DRB1*01:01 = HLA-DRB1*01:01 (Homo sapiens, UniProt P01903+P01911, A100R/D57E/F55L/F60I/F76Y/I96L/L162R/M171V/P40L/Q125E/R42F/V115G/Y59C); test: Competition peptide-binding assay, HLA-DRB1*01:01
Procedure: Stepwise binding analysis of 15-mer peptides derived from both native and citrullinated α-enolase to HLA-DRB1*01, *04:01, and *04:04 was performed using the ProImmune Class II Reveal assay (ProImmune, Oxford, UK). Relevant peptides were thereafter synthesized by GenScript (Piscataway, NJ, USA) and used for competition peptide-binding assays. […] Finally, peptide-binding affinity to the three different HLA alleles was assessed in direct binding assays in which N-terminally biotinylated epitopes (GenScript, Piscataway, NJ, USA) were incubated at concentrations from 5 to 0.05 μM with plate-bound relevant HLA-DRB1 molecules in the absence of a competitor peptide ([22]). The inflection point of the binding curve of a known binding epitope was used as a cutoff to separate weakly binding epitopes from background.
We decided to make use of HLA-DRB1*01:01 as a representative model for HLA-DRB1*01.

[4] = competition with 0.02 μM biotinylated GAD65 270–285, plate-bound HLA-DRB1*04:04, increasing peptide concentrations, read-out: IC50 *04:04
[5] = competition with 0.02 μM biotinylated HA306–318, plate-bound HLA-DRB1*01:01, increasing peptide concentrations, read-out: IC50 *01:01

| Molecule | IC50 [1] | IC50 [3] | IC50 (HLA-DRB1*04:04; [4]) | IC50 (HLA-DRB1*01:01; [5]) | further results |
| --- | --- | --- | --- | --- | --- |
| CC[C@H](C)[C@H](N)C(=O)N[C@@H](Cc1ccccc1)C(=O)N[C@@H](CC(=O)O)C(=O)N[C@@H](CO)C(=O)N[C@@H](CCCNC(N)=O)C(=O)NCC(=O)N[C@@H](CC(N)=O)C(=O)N1CCC[C@H]1C(=O)N[C@H](C(=O)N[C@H](C(=O)N[C@@H](CCC(=O)O)C(=O)N[C@@H](CC(=O)O)C(=O)N[C@H](C(=O)N[C@@H](CC(C)C)C(=O)N[C@@H](Cc1ccccc1)C(=O)O)C(C)C)C(C)C)[C@@H](C)O [cit11] (H-IFDS[Cit]GNPTVEDVLF-OH) |  |  |  |  | IC50 (HLA-DRB1*04:04): 1.7 µM; IC50 (HLA-DRB1*01:01): 25 µM |
| CC[C@H](C)[C@H](N)C(=O)N[C@@H](Cc1ccccc1)C(=O)N[C@@H](CC(=O)O)C(=O)N[C@@H](CO)C(=O)N[C@@H](CCCNC(=N)N)C(=O)NCC(=O)N[C@@H](CC(N)=O)C(=O)N1CCC[C@H]1C(=O)N[C@H](C(=O)N[C@H](C(=O)N[C@@H](CCC(=O)O)C(=O)N[C@@H](CC(=O)O)C(=O)N[C@H](C(=O)N[C@@H](CC(C)C)C(=O)N[C@@H](Cc1ccccc1)C(=O)O)C(C)C)C(C)C)[C@@H](C)O [peptide 11] (H-IFDSRGNPTVEDVLF-OH; N-terminus and C-terminus assumed) |  |  | > 50 µM | > 50 µM |  |
| CC[C@H](C)[C@H](NC(=O)[C@H](Cc1c[nH]cn1)NC(=O)[C@H](CCC(=O)O)NC(=O)[C@@H](NC(=O)[C@H](C)NC(=O)[C@H](CCCCN)NC(=O)[C@H](CO)NC(=O)[C@@H](NC(=O)CNC(=O)[C@H](CCCCN)NC(=O)CNC(=O)[C@H](CCSC)NC(=O)[C@H](Cc1ccc(O)cc1)NC(=O)[C@@H](N)CCCNC(=N)N)C(C)C)C(C)C)C(=O)N[C@@H](CC(N)=O)C(=O)O [compound 56] (H-RYMGKGVSKAVEHIN-OH; N-terminus and C-terminus assumed) |  |  | > 50 µM | > 50 µM |  |
| CC[C@H](C)[C@H](NC(=O)[C@H](CCCNC(=N)N)NC(=O)[C@@H](N)CCCCN)C(=O)N[C@@H](C)C(=O)N[C@@H](CCCCN)C(=O)N[C@@H](C)C(=O)N[C@H](C(=O)N[C@@H](CC(N)=O)C(=O)N[C@@H](CCC(=O)O)C(=O)N[C@@H](CCCCN)C(=O)N[C@@H](CO)C(=O)N[C@@H](CS)C(=O)N[C@@H](CC(N)=O)C(=O)N[C@@H](CS)C(=O)N[C@@H](CC(C)C)C(=O)O)C(C)C [peptide 326] (H-KRIAKAVNEKSCNCL-OH) |  |  | 0.7 µM | > 50 µM |  |
| CC[C@H](C)[C@H](NC(=O)[C@H](CCCNC(N)=O)NC(=O)[C@@H](N)CCCCN)C(=O)N[C@@H](C)C(=O)N[C@@H](CCCCN)C(=O)N[C@@H](C)C(=O)N[C@H](C(=O)N[C@@H](CC(N)=O)C(=O)N[C@@H](CCC(=O)O)C(=O)N[C@@H](CCCCN)C(=O)N[C@@H](CO)C(=O)N[C@@H](CS)C(=O)N[C@@H](CC(N)=O)C(=O)N[C@@H](CS)C(=O)N[C@@H](CC(C)C)C(=O)O)C(C)C [cit326] (H-K[Cit]IAKAVNEKSCNCL-OH) |  |  | 0.7 µM | > 50 µM |  |
| CC[C@H](C)[C@H](NC(=O)[C@H](CCCNC(=N)N)NC(=O)[C@H](CCSC)NC(=O)[C@H](C)NC(=O)[C@H](CCC(=O)O)NC(=O)[C@H](CCCNC(=N)N)NC(=O)[C@H](Cc1ccccc1)NC(=O)[C@H](CC(N)=O)NC(=O)[C@H](C)NC(=O)[C@H](C)NC(=O)CNC(=O)[C@@H](NC(=O)[C@@H]1CCCN1C(=O)[C@@H](N)CC(C)C)C(C)C)C(=O)NCC(=O)O [compound 171] (H-LPVGAANFREAMRIG-OH; N-terminus and C-terminus assumed) |  |  | > 50 µM | > 50 µM |  |
| MSILKIHA[Cit]EIFDS[Cit] [α-enolase peptide Cit1 (residues 1–15), citrullinated] | > 50 µM | > 50 µM |  |  |  |

Continued, in another order:

| IC50 [1] | IC50 [3] | Molecule | IC50 (HLA-DRB1*04:04; [4]) | IC50 (HLA-DRB1*01:01; [5]) | further results |
| --- | --- | --- | --- | --- | --- |
| 25 µM | 1.7 µM | α-enolase peptide Cit11 (residues 11–25), citrullinated |  |  | IC50 [2]: 2.2 µM |
|  | > 50 µM | LPVGAANF[Cit]EAM[Cit]IG [α-enolase peptide Cit171 (residues 171–185), citrullinated] |  |  |  |
| 3.5 µM | > 50 µM | MSILKIHAREIFDSR [α-enolase peptide 1 (residues 1–15), native] |  |  |  |

— publication PMC5108039, “Functional and Structural Characterization of a Novel HLA-DRB1*04:01-Restricted α-Enolase T Cell Epitope in Rheumatoid Arthritis” (Frontiers in Immunology, 2016)
